Measured values reported in PubChem BioAssay AID2060341 (Molecular Pharmacology Branch, DTP, NCI, 2025).

System: 327498-153-R-J2-PDC multicell spheroid viability
Test: Anticancer human tumor 327498-153-R-J2-PDC patient-derived uterine carcinosarcoma cell line growth inhibition [IpAb]
Conditions: for IC50: curve of first compound; for viability, T/C: stronger effect = lower value
Source text: Combinatorial screen of targeted agents with ipatasertib and abemaciclib in multi-cell type tumor spheroids
A high-throughput screen of multi-cell type tumor spheroids was designed to identify active combinations of targeted small molecules and ipatasertib or abemaciclib. Complex spheroids include a stromal component modeled by human endothelial cells (HUVEC) and fibroblasts modeled by human mesenchymal stem cells (MSCs). The concentration ranges selected for each drug and investigational agent were based upon clinically achievable concentrations if the clinical Cmax of the agent was known.
Compounds. The drugs and investigational agents: ipatasertib (NSC767898), abemaciclib(NSC768073), selumetinib (NSC741078), trametinib (758246), adavosertib (NSC754352), everolimus (NSC733504), sapanisertib (NSC764658), vemurafenib (NSC761431), venetoclax (NSC766270), copanlisib (NSC809693), apelisib (NSC765974), palbociblib (NSC758247), vemurafenib (NSC761431), dabrafenib (NSC764134), ravoxertinib (NSC781343), BMS-387032 (NSC767048), sotorasib (NSC818433), talazoparib (NSC767125) and afursertib (NSC778305), were obtained from the National Cancer Institute (NCI) Developmental Therapeutics Program Chemical Repository. The FDA-approved anticancer drug set is available from the NCI Developmental Therapeutics Program. […] The stock solutions were prepared in dimethyl sulfoxide (DMSO, Sigma-Aldrich, St. Louis, MO, cat. D2650) at 800-fold the tested concentration and stored at -70 degrees C prior to their use. All drugs and investigational agents were tested over a range starting from a high concentration at or near the clinical Cmax and decreasing in half-log increments. If the clinical Cmax for an agent had not been determined, the highest concentration tested was 10 microM.
NCI60 Cell Culture. NCI60 cell lines were obtained from the NCI Developmental Therapeutics Program Tumor Repository. For each lot of cells, the Repository performed Applied Biosystems AmpFLSTR Identifiler testing with PCR amplification to confirm consistency with the published Identifier STR profile for each cell line. Cells were kept in continuous culture for no more than 20 passages. The optimal seeding densities for each of the cell lines at each time point assessed were determined prior to performing the concentration response studies. Briefly, the NCI60 human tumor lines were grown as monolayers in RPMI 1640 medium supplemented with 10% FBS and 2 mmol/L L-glutamine.
An additional 9 lines were from the NCI60 cell line panel including MDA-MB-231 breast carcinoma, MDA-MB-468 breast carcinoma, MCF7 breast carcinoma, Hs578T breast carcinoma, MALME-3M melanoma, SK-MEL-2 melanoma, SK-OV-3 ovarian carcinoma, DU-145 prostate carcinoma, PC-3 prostate carcinoma, all cell lines along with major genetic alterations are listed on Table 2. Pooled donor human umbilical vein endothelial cells (HUVEC, Lonza, cat. CC-2519) and human mesenchymal stem cells (hMSC, Lonza, cat. PT-2501) were purchased from Lonza (Walkersville, MD).
PDMR cell lines were grown in complete medium (DC medium): Dulbecco's modified Eagle's medium (DMEM)/F12 supplemented with 5% fetal bovine serum (FBS), 2 mM L-glutamine, 100 U/mL penicillin and 100 µg/ml streptomycin, 0.4 µg/ml hydrocortisone, 10 ng/ml epidermal growth factor (EGF) recombinant human protein, 24 µg/mL adenine, and 0.1 mg/mL primocin. During culture from frozen stock vials, PDMR cells were cultured in the same medium containing 10 µM Y-27632 (see Table 3). The PDCs were cultured in complete DMEM/F12 media without 10 microM Y-27632 dihydrochloride for at least two passages prior to the screen. The pooled donor HUVEC and hMSC were cultured in endothelial cell growth medium 2 (PromoCell, Heidelberg, Germany, cat. C-22011) and mesenchymal stem cell growth medium 2 (PromoCell, cat. C-28009), respectively. For all experiments, HUVEC and hMSC were used at passages </=5.
[…]

[1] = second compound 0.1 µM, first compound 0.00316 µM
[2] = second compound 0.1 µM, first compound 0.01 µM
[3] = second compound 0.1 µM, first compound 0.0316 µM
[4] = second compound 0.1 µM, first compound 0.1 µM
[5] = second compound 0.316 µM, first compound 0.00316 µM
[6] = second compound 0.316 µM, first compound 0.01 µM
[7] = second compound 0.316 µM, first compound 0.0316 µM
[8] = second compound 0.316 µM, first compound 0.1 µM
[9] = second compound 1 µM, first compound 0.00316 µM
[10] = second compound 1 µM, first compound 0.01 µM
[11] = second compound 1 µM, first compound 0.0316 µM
[12] = second compound 1 µM, first compound 0.1 µM
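Also: spheroids exposed to agents for 7 days.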
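For viability, T/C in this document: 100% = DMSO vehicle control viability.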

COc1c(OCCCN2CCOCC2)ccc2c3n(c(=NC(=O)c4cnc(N)nc4)nc12)CCN3 + CC(C)NCC(C(=O)N1CCN(c2ncnc3c2C(C)CC3O)CC1)c1ccc(Cl)cc1
IC50 (second compound 0.1 µM): 45.9 nM
IC50 (second compound 0.316 µM): 35.8 nM
IC50 (second compound 1 µM): 4.21 nM
IC50 (second compound 3.16 µM): < 3.16 nM
IC50 (second compound 10 µM): < 3.16 nM
viability, T/C [1]: 81.6%
viability, T/C [2]: 74.9%
viability, T/C [3]: 58%
viability, T/C [4]: 33.3%
viability, T/C (second compound 0.1 µM, first compound 0.316 µM): 16.8%
viability, T/C (second compound 0.1 µM, first compound 1 µM): 9.2%
viability, T/C [5]: 67.2%
viability, T/C [6]: 67.5%
viability, T/C [7]: 52.1%
viability, T/C [8]: 27.5%
viability, T/C (second compound 0.316 µM, first compound 0.316 µM): 15.2%
viability, T/C (second compound 0.316 µM, first compound 1 µM): 8.52%
viability, T/C [9]: 53.5%
viability, T/C [10]: 39.2%
viability, T/C [11]: 32.4%
viability, T/C [12]: 21.1%
viability, T/C (second compound 1 µM, first compound 0.316 µM): 9.37%
viability, T/C (second compound 1 µM, first compound 1 µM): 7.49%
viability, T/C (second compound 3.16 µM, first compound 0.00316 µM): 42.2%
viability, T/C (second compound 3.16 µM, first compound 0.01 µM): 33.3%
viability, T/C (second compound 3.16 µM, first compound 0.0316 µM): 23.6%
viability, T/C (second compound 3.16 µM, first compound 0.1 µM): 15%
viability, T/C (second compound 3.16 µM, first compound 0.316 µM): 8.38%
viability, T/C (second compound 3.16 µM, first compound 1 µM): 5.77%
viability, T/C (second compound 10 µM, first compound 0.00316 µM): 34.2%
viability, T/C (second compound 10 µM, first compound 0.01 µM): 25.9%
viability, T/C (second compound 10 µM, first compound 0.0316 µM): 22.4%
viability, T/C (second compound 10 µM, first compound 0.1 µM): 11.9%
viability, T/C (second compound 10 µM, first compound 0.316 µM): 7.65%
viability, T/C (second compound 10 µM, first compound 1 µM): 4.58%

CC(C)n1nc(-c2ccc3oc(N)nc3c2)c2c(N)ncnc21 + CCN1CCN(Cc2ccc(Nc3ncc(F)c(-c4cc(F)c5nc(C)n(C(C)C)c5c4)n3)nc2)CC1
IC50 (second compound 0.01 µM): 7.33 nM
IC50 (second compound 0.0316 µM): 4.58 nM
IC50 (second compound 0.1 µM): 2.01 nM
IC50 (second compound 0.316 µM): 1.03 nM
IC50 (second compound 1 µM): 1.17 nM
viability, T/C (second compound 0.01 µM, first compound 0.000316 µM): 90.9%
viability, T/C (second compound 0.01 µM, first compound 0.001 µM): 77.3%
viability, T/C (second compound 0.01 µM, first compound 0.00316 µM): 68.1%
viability, T/C (second compound 0.01 µM, first compound 0.01 µM): 45.6%
viability, T/C (second compound 0.01 µM, first compound 0.0316 µM): 21.2%
viability, T/C (second compound 0.01 µM, first compound 0.1 µM): 16.1%
viability, T/C (second compound 0.0316 µM, first compound 0.000316 µM): 68.7%
viability, T/C (second compound 0.0316 µM, first compound 0.001 µM): 73.6%
viability, T/C (second compound 0.0316 µM, first compound 0.00316 µM): 53.8%
viability, T/C (second compound 0.0316 µM, first compound 0.01 µM): 37.1%
viability, T/C (second compound 0.0316 µM, first compound 0.0316 µM): 19.8%
viability, T/C (second compound 0.0316 µM, first compound 0.1 µM): 14.8%
viability, T/C (second compound 0.1 µM, first compound 0.000316 µM): 58.2%
viability, T/C (second compound 0.1 µM, first compound 0.001 µM): 50.3%
viability, T/C [1]: 49.8%
viability, T/C [2]: 31.4%
viability, T/C [3]: 20.7%
viability, T/C [4]: 14.6%
viability, T/C (second compound 0.316 µM, first compound 0.000316 µM): 59.2%
viability, T/C (second compound 0.316 µM, first compound 0.001 µM): 50.1%
viability, T/C [5]: 39.5%
viability, T/C [6]: 28.5%
viability, T/C [7]: 20.3%
viability, T/C [8]: 15.2%
viability, T/C (second compound 1 µM, first compound 0.000316 µM): 56.9%
viability, T/C (second compound 1 µM, first compound 0.001 µM): 50.8%
viability, T/C [9]: 46.3%
viability, T/C [10]: 35.7%
viability, T/C [11]: 23.1%
viability, T/C [12]: 19.9%

CC(C)(C)c1cnc(CSc2cnc(NC(=O)C3CCNCC3)s2)o1 + CCN1CCN(Cc2ccc(Nc3ncc(F)c(-c4cc(F)c5nc(C)n(C(C)C)c5c4)n3)nc2)CC1
IC50 (second compound 0.01 µM): 142 nM
IC50 (second compound 0.0316 µM): 105 nM
IC50 (second compound 0.1 µM): 83.4 nM
IC50 (second compound 0.316 µM): 37.5 nM
IC50 (second compound 1 µM): 34.4 nM
viability, T/C (second compound 0.01 µM, first compound 0.00949 µM): 90%
viability, T/C (second compound 0.01 µM, first compound 0.03 µM): 80.7%
viability, T/C (second compound 0.01 µM, first compound 0.0949 µM): 75.5%
viability, T/C (second compound 0.01 µM, first compound 0.3 µM): 2.61%
viability, T/C (second compound 0.01 µM, first compound 0.949 µM): 0.63%
viability, T/C (second compound 0.01 µM, first compound 3 µM): 0.6%
viability, T/C (second compound 0.0316 µM, first compound 0.00949 µM): 76.8%
viability, T/C (second compound 0.0316 µM, first compound 0.03 µM): 68.4%
viability, T/C (second compound 0.0316 µM, first compound 0.0949 µM): 54.6%
viability, T/C (second compound 0.0316 µM, first compound 0.3 µM): 1.44%
viability, T/C (second compound 0.0316 µM, first compound 0.949 µM): 0.56%
viability, T/C (second compound 0.0316 µM, first compound 3 µM): 0.66%
viability, T/C (second compound 0.1 µM, first compound 0.00949 µM): 57.6%
viability, T/C (second compound 0.1 µM, first compound 0.03 µM): 67.6%
viability, T/C (second compound 0.1 µM, first compound 0.0949 µM): 48.4%
viability, T/C (second compound 0.1 µM, first compound 0.3 µM): 0.6%
viability, T/C (second compound 0.1 µM, first compound 0.949 µM): 0.61%
viability, T/C (second compound 0.1 µM, first compound 3 µM): 0.61%
viability, T/C (second compound 0.316 µM, first compound 0.00949 µM): 51.6%
viability, T/C (second compound 0.316 µM, first compound 0.03 µM): 54.3%
viability, T/C (second compound 0.316 µM, first compound 0.0949 µM): 37.6%
viability, T/C (second compound 0.316 µM, first compound 0.3 µM): 0.81%
viability, T/C (second compound 0.316 µM, first compound 0.949 µM): 0.6%
viability, T/C (second compound 0.316 µM, first compound 3 µM): 0.72%
viability, T/C (second compound 1 µM, first compound 0.00949 µM): 55.4%
viability, T/C (second compound 1 µM, first compound 0.03 µM): 50.8%
viability, T/C (second compound 1 µM, first compound 0.0949 µM): 29.8%
viability, T/C (second compound 1 µM, first compound 0.3 µM): 0.56%
viability, T/C (second compound 1 µM, first compound 0.949 µM): 1.62%
viability, T/C (second compound 1 µM, first compound 3 µM): 0.76%
